Results taken from PubChem BioAssay AID2060493 (Molecular Pharmacology Branch, DTP, NCI, 2025).

System: 616215-338-R-J1-PDC tumor spheroids, viability
Assay: Anticancer human tumor 616215-338-R-J1-PDC patient-derived colon adenocarcinoma cell line growth inhibition [GQUAD]
Conditions: spheroids with HUVEC and MSC; for IC50: curve of first compound; for viability, T/C: stronger effect = lower value
Outline: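 Tumor cells were grown as complex spheroids with HUVEC endothelial cells and mesenchymal stem cells as stroma. G-quadruplex stabilizers were combined with targeted agents over half-log dilutions from near the clinical Cmax, or from 10 microM.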

[1] = second compound 0.0316 µM, first compound 0.0316 µM
[2] = second compound 0.0316 µM, first compound 0.1 µM
[3] = second compound 0.0316 µM, first compound 0.316 µM
[4] = second compound 0.0316 µM, first compound 1 µM
[5] = second compound 0.0316 µM, first compound 3.16 µM
[6] = second compound 0.0316 µM, first compound 10 µM
[7] = second compound 0.1 µM, first compound 0.0316 µM
[8] = second compound 0.1 µM, first compound 0.1 µM
[9] = second compound 0.1 µM, first compound 0.316 µM
[10] = second compound 0.1 µM, first compound 1 µM
[11] = second compound 0.1 µM, first compound 3.16 µM
[12] = second compound 0.1 µM, first compound 10 µM
[13] = second compound 0.316 µM, first compound 0.0316 µM
[14] = second compound 0.316 µM, first compound 0.1 µM
[15] = second compound 0.316 µM, first compound 0.316 µM
[16] = second compound 0.316 µM, first compound 1 µM
[17] = second compound 0.316 µM, first compound 3.16 µM
[18] = second compound 0.316 µM, first compound 10 µM
[19] = second compound 1 µM, first compound 0.0316 µM
[20] = second compound 1 µM, first compound 0.1 µM
[21] = second compound 1 µM, first compound 0.316 µM
[22] = second compound 1 µM, first compound 1 µM
[23] = second compound 1 µM, first compound 3.16 µM
[24] = second compound 1 µM, first compound 10 µM
[25] = second compound 3.16 µM, first compound 0.0316 µM
[26] = second compound 3.16 µM, first compound 0.1 µM
[27] = second compound 3.16 µM, first compound 0.316 µM
[28] = second compound 3.16 µM, first compound 1 µM
[29] = second compound 3.16 µM, first compound 3.16 µM
[30] = second compound 3.16 µM, first compound 10 µM
[31] = second compound 10 µM, first compound 0.0316 µM
[32] = second compound 10 µM, first compound 0.1 µM
[33] = second compound 10 µM, first compound 0.316 µM
[34] = second compound 10 µM, first compound 1 µM
[35] = second compound 10 µM, first compound 3.16 µM
[36] = second compound 10 µM, first compound 10 µM
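Note: spheroids exposed to agents for 7 days before readout.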
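Throughout, for viability, T/C: percent viability relative to DMSO vehicle control wells taken as 100%.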

With `C=CCn1c(=O)c2cnc(Nc3ccc(N4CCN(C)CC4)cc3)nc2n1-c1cccc(C(C)(C)O)n1` + Cc1cnc(CNC(=O)c2c(=O)c3ccc(N4CCCN(C)CC4)nc3n3c2sc2ccccc23)cn1 the IC50 (second compound 0.0316 µM) was 0.255 µM, the IC50 (second compound 0.1 µM) was 0.131 µM and the IC50 (second compound 0.316 µM) was under 0.0316 µM. The IC50 (second compound 1 µM) was under 0.0316 µM, the IC50 (second compound 3.16 µM) was under 0.0316 µM and the IC50 (second compound 10 µM) was under 0.0316 µM. The viability, T/C [1] was 110%, the viability, T/C [2] was 71.4% and the viability, T/C [3] was 44.4%. The viability, T/C [4] was 32.2%, the viability, T/C [5] was 23.4% and the viability, T/C [6] was 21.9%. It also gave a viability, T/C [7] of 57.2%, a viability, T/C [8] of 55% and a viability, T/C [9] of 40.1%. For the same compound, the viability, T/C [10] was 38.3%, the viability, T/C [11] was 24.4% and the viability, T/C [12] was 17.8%. For the same compound, the viability, T/C [13] was 44.1%, the viability, T/C [14] was 39.4% and the viability, T/C [15] was 30%. It also gave a viability, T/C [16] of 30.2%, a viability, T/C [17] of 27.7% and a viability, T/C [18] of 21%. For the same compound, the viability, T/C [19] was 29.8%, the viability, T/C [20] was 30.8% and the viability, T/C [21] was 21%. The viability, T/C [22] was 21.9%, the viability, T/C [23] was 25.2% and the viability, T/C [24] was 17.3%. For the same compound, the viability, T/C [25] was 31.2%, the viability, T/C [26] was 31.8% and the viability, T/C [27] was 19.8%. The viability, T/C [28] was 17.5%, the viability, T/C [29] was 12.2% and the viability, T/C [30] was 16.8%. It also gave a viability, T/C [31] of 25.1%, a viability, T/C [32] of 26.2% and a viability, T/C [33] of 13.2%. It also gave a viability, T/C [34] of 15.5%, a viability, T/C [35] of 16.8% and a viability, T/C [36] of 15.5%.

With `CC(C)(O)C1CCC(Nc2ccc3ncc(-c4cccc(C(F)(F)F)c4)n3n2)CC1` (stereo not drawn) + CN(C)c1ccc(Nc2c3ccc(NC(=O)CCN4CCCC4)cc3nc3cc(NC(=O)CCN4CCCC4)ccc23)cc1 the IC50 (second compound 0.0316 µM) was 0.634 µM, the IC50 (second compound 0.1 µM) was 0.726 µM and the IC50 (second compound 0.316 µM) was 0.64 µM. It also gave an IC50 (second compound 1 µM) of 0.711 µM, an IC50 (second compound 3.16 µM) of 0.585 µM and an IC50 (second compound 10 µM) of 0.447 µM. The viability, T/C [1] was 111%, the viability, T/C [2] was 106% and the viability, T/C [3] was 101%. It also gave a viability, T/C [4] of 17%, a viability, T/C [5] of 0.97% and a viability, T/C [6] of 1.74%. It also gave a viability, T/C [7] of 96.3%, a viability, T/C [8] of 104% and a viability, T/C [9] of 94.7%. It also gave a viability, T/C [10] of 32.7%, a viability, T/C [11] of 1.16% and a viability, T/C [12] of 1.76%. It also gave a viability, T/C [13] of 106%, a viability, T/C [14] of 101% and a viability, T/C [15] of 91.2%. The viability, T/C [16] was 24.1%, the viability, T/C [17] was 1.32% and the viability, T/C [18] was 2.9%. For the same compound, the viability, T/C [19] was 93.6%, the viability, T/C [20] was 102% and the viability, T/C [21] was 103%. It also gave a viability, T/C [22] of 29.2%, a viability, T/C [23] of 2.03% and a viability, T/C [24] of 3.51%. It also gave a viability, T/C [25] of 93.1%, a viability, T/C [26] of 92.8% and a viability, T/C [27] of 86.3%. For the same compound, the viability, T/C [28] was 18.4%, the viability, T/C [29] was 3.83% and the viability, T/C [30] was 1.76%. It also gave a viability, T/C [31] of 89.9%, a viability, T/C [32] of 97.8% and a viability, T/C [33] of 63.8%. The viability, T/C [34] was 15.6%, the viability, T/C [35] was 0.42% and the viability, T/C [36] was 0.5%.

With `CC1COCCN1c1cc(-c2ccnn2C)c2ccnc(-c3ccn[nH]3)c2n1` (stereo not drawn) + Cc1cnc(CNC(=O)c2c(=O)c3ccc(N4CCCN(C)CC4)nc3n3c2sc2ccccc23)cn1 the IC50 (second compound 0.0316 µM) was under 0.0316 µM, the IC50 (second compound 0.1 µM) was under 0.0316 µM and the IC50 (second compound 0.316 µM) was under 0.0316 µM. It also gave an IC50 (second compound 1 µM) of under 0.0316 µM, an IC50 (second compound 3.16 µM) of under 0.0316 µM and an IC50 (second compound 10 µM) of under 0.0316 µM. The viability, T/C [1] was 49.5%, the viability, T/C [2] was 29.5% and the viability, T/C [3] was 31.4%. For the same compound, the viability, T/C [4] was 24.8%, the viability, T/C [5] was 25.9% and the viability, T/C [6] was 21.4%. It also gave a viability, T/C [7] of 42.5%, a viability, T/C [8] of 35.8% and a viability, T/C [9] of 29.2%. For the same compound, the viability, T/C [10] was 25.7%, the viability, T/C [11] was 23.7% and the viability, T/C [12] was 20.7%. The viability, T/C [13] was 28.4%, the viability, T/C [14] was 32.1% and the viability, T/C [15] was 26%. The viability, T/C [16] was 28.5%, the viability, T/C [17] was 37.4% and the viability, T/C [18] was 24.8%. The viability, T/C [19] was 30.6%, the viability, T/C [20] was 29.8% and the viability, T/C [21] was 31.9%. For the same compound, the viability, T/C [22] was 24%, the viability, T/C [23] was 19.6% and the viability, T/C [24] was 17.9%. The viability, T/C [25] was 28.8%, the viability, T/C [26] was 22.4% and the viability, T/C [27] was 25.8%. For the same compound, the viability, T/C [28] was 24.4%, the viability, T/C [29] was 22.5% and the viability, T/C [30] was 17%. It also gave a viability, T/C [31] of 30.2%, a viability, T/C [32] of 22.7% and a viability, T/C [33] of 23%. It also gave a viability, T/C [34] of 19.7%, a viability, T/C [35] of 24.2% and a viability, T/C [36] of 19.3%.

For `C=CC(=O)N1CCN(c2nc(=O)n(-c3c(C)ccnc3C(C)C)c3nc(-c4c(O)cccc4F)c(F)cc23)C(C)C1` (stereo not drawn) + CN(C)c1ccc(Nc2c3ccc(NC(=O)CCN4CCCC4)cc3nc3cc(NC(=O)CCN4CCCC4)ccc23)cc1, the IC50 (second compound 0.0316 µM) was over 10 µM, the IC50 (second compound 0.1 µM) was over 10 µM and the IC50 (second compound 0.316 µM) was over 10 µM. For the same compound, the IC50 (second compound 1 µM) was over 10 µM, the IC50 (second compound 3.16 µM) was over 10 µM and the IC50 (second compound 10 µM) was over 10 µM. The viability, T/C [1] was 96.3%, the viability, T/C [2] was 104% and the viability, T/C [3] was 103%. It also gave a viability, T/C [4] of 102%, a viability, T/C [5] of 94.2% and a viability, T/C [6] of 72%. For the same compound, the viability, T/C [7] was 110%, the viability, T/C [8] was 89.6% and the viability, T/C [9] was 100%. It also gave a viability, T/C [10] of 98%, a viability, T/C [11] of 95.4% and a viability, T/C [12] of 64.8%. The viability, T/C [13] was 93%, the viability, T/C [14] was 107% and the viability, T/C [15] was 94.9%. For the same compound, the viability, T/C [16] was 103%, the viability, T/C [17] was 89% and the viability, T/C [18] was 70.6%. It also gave a viability, T/C [19] of 98.7%, a viability, T/C [20] of 100% and a viability, T/C [21] of 102%. It also gave a viability, T/C [22] of 91.9%, a viability, T/C [23] of 91.6% and a viability, T/C [24] of 69.1%. The viability, T/C [25] was 102%, the viability, T/C [26] was 86.7% and the viability, T/C [27] was 94.9%. It also gave a viability, T/C [28] of 95%, a viability, T/C [29] of 80.2% and a viability, T/C [30] of 63.9%. It also gave a viability, T/C [31] of 98.1%, a viability, T/C [32] of 85.7% and a viability, T/C [33] of 86.3%. It also gave a viability, T/C [34] of 86.8%, a viability, T/C [35] of 70.3% and a viability, T/C [36] of 55.2%.
